Patent US10532985B2, “Heterocycle and carbocycle derivatives having TRKA inhibitory activity” (Shionogi & Co., Ltd., priority 2014, dated 2020)

Biological target: T1, human TrkA (Homo sapiens, UniProt P04629)
T1 construct: purchased Lifetechnologies PV3144
Experiment: Test Example 2: Human TrkA Inhibition Assay
Format: biochemical
Conditions: not given
Procedure: After the incubation for 90 min at room temperature, ten μL of termination buffer (100 mmol/L HEPES, 40 mmol/L ethylenediaminetetraacetic acid (EDTA), 10 mmol/L magnesium chloride, 0.003 vol % Brij-35, 0.004 vol % Tween20, 1 mmol/L DTT and 0.16 vol % Coating Reagent 3) was added in each well to stop the enzyme reaction. Fluorescent intensities (FI) of phosphorylated and non-phosphorylated fluorescent substrates were measured by LabChip EZReader II (Caliper LifeSciences, Inc.) and conversion ratio (CR) was calculated by the following formula-1. The CR in the well applied with DMSO alone was used as a negative control and the CR in the well without applying TrkA was used as a positive control. The inhibitory effect of each compound on TrkA phosphorylation was calculated by the following formula-2. CR (%)=(FI of phosphorylated substrate/(FI of phosphorylated substrate+FI of non-phosphorylated substrate))×100 (Formula-1) Inhibitory effect on TrkA phosphorylation (%)=(1−(CR in compound treated well−CR in positive control)/(CR in negative control−CR in positive control))×100. (Formula-2)

T1 sequence (P04629 33-796): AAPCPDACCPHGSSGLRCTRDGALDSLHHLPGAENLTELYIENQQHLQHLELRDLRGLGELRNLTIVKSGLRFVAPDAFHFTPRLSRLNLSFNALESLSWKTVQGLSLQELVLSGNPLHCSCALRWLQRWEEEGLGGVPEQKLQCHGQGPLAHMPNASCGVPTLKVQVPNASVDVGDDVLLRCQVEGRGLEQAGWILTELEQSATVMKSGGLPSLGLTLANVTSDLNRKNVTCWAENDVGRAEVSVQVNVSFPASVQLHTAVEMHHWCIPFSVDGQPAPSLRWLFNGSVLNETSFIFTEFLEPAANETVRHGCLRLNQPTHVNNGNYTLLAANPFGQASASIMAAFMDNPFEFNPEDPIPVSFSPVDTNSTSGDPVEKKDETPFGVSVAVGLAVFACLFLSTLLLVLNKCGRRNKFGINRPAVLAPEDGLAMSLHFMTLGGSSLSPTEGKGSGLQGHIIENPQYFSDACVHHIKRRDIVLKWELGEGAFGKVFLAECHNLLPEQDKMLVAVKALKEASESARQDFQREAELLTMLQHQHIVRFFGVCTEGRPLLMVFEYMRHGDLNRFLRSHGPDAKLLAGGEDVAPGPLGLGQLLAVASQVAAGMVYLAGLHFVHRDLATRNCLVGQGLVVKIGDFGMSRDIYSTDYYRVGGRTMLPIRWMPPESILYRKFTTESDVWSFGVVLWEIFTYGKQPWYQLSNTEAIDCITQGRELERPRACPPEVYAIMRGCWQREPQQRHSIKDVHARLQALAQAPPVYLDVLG

| Compound | IC50 |
| --- | --- |
| Cc1c(-c2cnn(C)c2)nn(-c2ccccc2)c1NC(=O)N[C@H]1[C@H](c2ccc(F)c(F)c2)[C@@H]2CC[C@H]1N2Cc1csnn1 (racemic) [Compound I-71] | 300 nM |

Same assay, conditions: Test Example 2; human TrkA 2.5 nmol/L, ATP 500 μmol/L, 90 min at room temperature; read-out: TrkA inhibitory activity IC50

| IC50 | Compound |
| --- | --- |
| 143 nM | COCCN1C[C@@H](CC(=O)Nc2c(C)c(-c3cnn(C)c3)nn2-c2ccccc2)[C@H](c2ccc(F)c(F)c2)C1 (racemic) [Compound I-15] |
| 700 nM | Cc1c(-c2cnn(C)c2)nn(-c2ccccc2)c1NC(=O)N[C@@H]1CN(CC(F)(F)F)C(=O)[C@H]1c1ccccc1 (racemic) [Compound I-44] |

Same assay, conditions: human TrkA inhibition, Test Example 2; class symbols A/B/C; read-out: IC50_nM

| IC50 | Compound |
| --- | --- |
| > 1000 nM | COCCN1C[C@@H](NC(=O)Nc2c(C)c(-c3cnn(C)c3)nn2-c2ccccc2)[C@@]2(CCc3ccccc32)C1 (racemic) [Compound I-7] |
| > 1000 nM | Cc1c(-c2cnn(C)c2)nn(-c2ccccc2)c1NC(=O)N[C@@H]1CN(Cc2ccccc2)[C@H]1c1ccccc1 (racemic) [Compound I-11] |
| > 1000 nM | Cc1c(-c2cnn(C)c2)nn(-c2ccccc2)c1NC(=O)N[C@@H]1CCC[C@H]1c1ccccc1 (racemic) [Compound I-13] |
| 100 to 1000 nM | COCCN1C[C@@H](NC(=O)Nc2c(C)c(-c3cnn(C)c3)nn2-c2ccccc2)[C@H](c2ccc(C(=O)OC)cc2)C1 (racemic) [Compound I-20] |
| > 1000 nM | COCCN1C[C@@H](NC(=O)Nc2c(C)c(-c3cnn(C)c3)nn2-c2ccccc2)[C@H](c2cccc(C(N)=O)c2)C1 (racemic) [Compound I-21] |
| 100 to 1000 nM | COCCN1C[C@@H](NC(=O)Nc2c(C)c(-c3cnn(C)c3)nn2-c2ccccc2)[C@H](C2CCC(F)(F)CC2)C1 (racemic) [Compound I-33] |
| > 1000 nM | COC(=O)[C@@H]1C[C@@H](NC(=O)Nc2c(C)c(-c3cnn(C)c3)nn2-c2ccccc2)[C@H](c2ccc(F)c(F)c2)N1 (racemic) [Compound I-47] |
| < 100 nM | COCCN1C[C@@H](NC(=O)Nc2c(C)c(-c3cnn(C)c3)nn2-c2ccccc2)[C@H](c2cccc(-c3ccccc3)c2)C1 (racemic) [Compound I-48] |
| < 100 nM | COCCN1C[C@@H](NC(=O)Nc2c(C)c(-c3cnn(C)c3)nn2-c2ccccc2)[C@H](c2cccc(/C=C/c3ccccc3)c2)C1 (racemic) [Compound I-49] |
| < 100 nM | COCCN1C[C@@H](NC(=O)Nc2c(C)c(-c3cnn(C)c3)nn2-c2ccccc2)[C@H](c2cccc(-c3ccoc3)c2)C1 (racemic) [Compound I-51] |
| 100 to 1000 nM | COCCN1C[C@@H](NC(=O)Nc2c(C)c(-c3cnn(C)c3)nn2-c2ccccc2)[C@H](c2cccc(-c3cccc(C(=O)OC)c3)c2)C1 (racemic) [Compound I-57] |
| > 1000 nM | COCCN1C[C@@H](NC(=O)Nc2c(C)c(-c3cnn(C)c3)nn2-c2ccccc2)[C@H](c2cccc(C3=CCCCC3)c2)C1 (racemic) [Compound I-58] |
| > 1000 nM | COCCN1C[C@@H](NC(=O)Nc2c(C)c(-c3cnn(C)c3)nn2-c2ccccc2)[C@H](c2cccc(-c3cncnc3)c2)C1 (racemic) [Compound I-59] |
| < 100 nM | C=C1C[C@@H](NC(=O)Nc2c(C)c(-c3cnn(C)c3)nn2-c2ccccc2)[C@H](c2ccc(F)cc2)C1 (racemic) [Compound I-65] |
| 100 to 1000 nM | COCCN1C[C@@H](NC(=O)Nc2c(C)c(-c3cnn(C)c3)nn2-c2ccccc2)[C@H](c2cccc3c2OCO3)C1 (racemic) [Compound I-75] |

Continued, compound first:

| Compound | IC50 |
| --- | --- |
| Cc1c(-c2cnn(C)c2)nn(-c2ccccc2)c1NC(=O)N[C@@H]1CN(C(=O)OC(C)(C)C)C[C@H]1c1ccccc1 (racemic) [Compound I-5] | > 1000 nM |
| COCCN1C[C@H](NC(=O)Nc2c(C)c(-c3cnn(C)c3)nn2-c2ccccc2)[C@H](c2ccc(F)c(F)c2)C1 (racemic) [Compound I-6] | > 1000 nM |
| COCCN1C[C@@H](NC(=O)Nc2c(C)c(-c3cnn(C)c3)nn2-c2ccccc2)[C@H](C2CCCCC2)C1 (racemic) [Compound I-9] | 100 to 1000 nM |
| COCCN1C[C@@H](NC(=O)Nc2c(C)c(OCC(C)(C)O)nn2-c2ccccc2)[C@H](C2CCCCC2)C1 (racemic) [Compound I-10] | > 1000 nM |
| COCCN1[C@@H]2CCC[C@H]1[C@@H](c1ccc(F)c(F)c1)[C@@H]2NC(=O)Nc1c(C)c(-c2cnn(C)c2)nn1-c1ccccc1 (racemic) [Compound I-12] | > 1000 nM |
| COCCN1C[C@@H](N(C)C(=O)Nc2c(C)c(-c3cnn(C)c3)nn2-c2ccccc2)[C@H](c2ccccc2)C1 (racemic) [Compound I-17] | > 1000 nM |
| Cc1c(-c2cnn(C)c2)nn(-c2ccccc2)c1NC(=O)N[C@@H]1CN(Cc2ccccc2)C[C@H]1C1CCCCC1 (racemic) [Compound I-18] | > 1000 nM |
| COCCN1C[C@@H](NC(=O)Nc2c(C)c(-c3cnn(C)c3)nn2-c2ccccc2)[C@H](c2cccc(C(=O)OC)c2)C1 (racemic) [Compound I-19] | > 1000 nM |
| COCCN1[C@@H]2CC[C@H]1[C@@H](c1ccc(F)c(F)c1)[C@@H]2NC(=O)Nc1c(C)c(-c2cnn(C)c2)nn1-c1ccccc1 (racemic) [Compound I-30] | > 1000 nM |
| COCCN1C[C@@H](NC(=O)Nc2c(C)c(OCC(C)(C)O)nn2-c2ccccc2)[C@H](C2CCC(F)(F)CC2)C1 (racemic) [Compound I-34] | > 1000 nM |
| COCCN1C[C@@H](NC(=O)Nc2c(C)c(-c3cnn(C)c3)nn2-c2ccccc2)[C@H](c2cccc(-c3ccc(C#N)cc3)c2)C1 (racemic) [Compound I-50] | < 100 nM |
| COCCN1C[C@@H](NC(=O)Nc2c(C)c(-c3cnn(C)c3)nn2-c2ccccc2)[C@H](c2cccc(-c3cccc(C#N)c3)c2)C1 (racemic) [Compound I-52] | 100 to 1000 nM |
| COCCN1C[C@@H](NC(=O)Nc2c(C)c(-c3cnn(C)c3)nn2-c2ccccc2)[C@H](c2cccc(-c3ccc(C#N)s3)c2)C1 (racemic) [Compound I-53] | > 1000 nM |
| COCCN1C[C@@H](NC(=O)Nc2c(C)c(-c3cnn(C)c3)nn2-c2ccccc2)[C@H](c2cccc(-c3ccc(C(=O)OC)cc3)c2)C1 (racemic) [Compound I-54] | > 1000 nM |
| COCCN1C[C@@H](NC(=O)Nc2c(C)c(-c3cnn(C)c3)nn2-c2ccccc2)[C@H](c2cccc(-c3ccccc3C#N)c2)C1 (racemic) [Compound I-55] | 100 to 1000 nM |
| COCCN1C[C@@H](NC(=O)Nc2c(C)c(-c3cnn(C)c3)nn2-c2ccccc2)[C@H](c2cccc(-c3cccnc3)c2)C1 (racemic) [Compound I-56] | > 1000 nM |
| COCCN1C[C@@H](NC(=O)Nc2c(C)c(-c3cnn(C)c3)nn2-c2ccccc2)[C@H](c2cccc(-c3ccncc3)c2)C1 (racemic) [Compound I-60] | > 1000 nM |
| Cc1c(-c2cnn(C)c2)nn(-c2ccccc2)c1NC(=O)N[C@@H]1CN(CO)C[C@H]1c1ccc(F)c(F)c1 (racemic) [Compound I-67] | > 1000 nM |
| Cc1c(-c2cnn(C)c2)nn(-c2ccccc2)c1NC(=O)N[C@H]1[C@H](c2ccc(F)c(F)c2)[C@@H]2CC[C@H]1N2 (racemic) [Compound I-68] | > 1000 nM |
| CCN1[C@@H]2CC[C@H]1[C@@H](c1ccc(F)c(F)c1)[C@@H]2NC(=O)Nc1c(C)c(-c2cnn(C)c2)nn1-c1ccccc1 (racemic) [Compound I-69] | > 1000 nM |
| COCCCN1[C@@H]2CC[C@H]1[C@@H](c1ccc(F)c(F)c1)[C@@H]2NC(=O)Nc1c(C)c(-c2cnn(C)c2)nn1-c1ccccc1 (racemic) [Compound I-70] | > 1000 nM |
| Cc1c(-c2cnn(C)c2)nn(-c2ccccc2)c1NC(=O)N[C@@H]1C[C@@H](C)N(C(=O)OC(C)(C)C)[C@H]1c1ccc(F)c(F)c1 (racemic) [Compound I-76] | > 1000 nM |
